Measurements as given in patent publication US20260114446A1, “Compositions, Methods and Devices for Control and Monitoring Insects” (Agriculture Victoria Services Pty Ltd, priority 2023, published 2026).

Tests used:
Type in all cases: in vivo
Carpophilus truncatus [1] = experiment: Field experiment of pheromone lure septa in an almond orchard (Example 3), C. truncatus catches; details: septa in bucket traps with co-attractant solution (45% ethanol, isopentyl alcohol) and Dichlorvos strip; 10 replicates; 6 weeks, samples fortnightly; p<0.001
Protocol: A field experiment was designed to test the attractancy of the previously described C. truncatus Pheromone 2 under field conditions and the pheromonal (attractant) activity of newly identified Pheromone 3. […] All pheromones were tested together with a co-attractant mixture in the form of an aqueous ethanol and isopentyl alcohol solution, which acts synergistically to elicit a strong behavioural response in C. truncatus.
Pheromone test lures were loaded on white Precision Seal® rubber septa (8 mm OD, Sigma Aldrich product code: Z553913) with butylated hydroxytoluene used an antioxidant. The quantities of individual compounds applied on the septa were determined by SPME-GC-MS analyses of test septa at days 1 and 3 to produce the two pheromones in approximately equal ratios. The quantity of antioxidant was chosen based on the existing literature as 10% of the ratio of the dominant pheromone (Table 2). Hexane dilutions of the neat pheromones were prepared, and desired quantities loaded onto the septa. […]
The field trial was carried out from December 2021 in a commercial almond orchard located near Mildura, Victoria, Australia. […] Beetles present in different traps were identified and counted under a stereomicroscope. […]
Field data were analysed using a Generalized Linear Mixed Model (GLMM) fitted with a negative binomial distribution using the glmmTMB package (Brooks et al. 2019). […]

Carpophilus truncatus [2] = experiment: Two-week field trial of lure treatments (Example 4), C. truncatus catches; details: 20 repeats per treatment, with co-attractant, high beetle populations
Protocol: (§1) A short trial was carried out over two weeks. Treatments were randomised and replicated in 10 tree rows with approximately 50 m spacing between traps (10 rows×2 treatments—20 repeats per treatment; 3 treatments of 20 repeats is 60 traps used). The treatments are shown in Table 3: Data was analysed in a similar way to Example 3 using GLMM with trap catches as response variable, lure treatment as fixed factor and row and column as random (spatial features). Turkey's adjusted post hoc tests for multiple comparisons of a family of three estimates. The results of the mixed model are: Wald χ2=[…], p=2.64 10^−14.

[3] = tested on: other Carpophilus species; experiment: Two-week field trial of lure treatments (Example 4), catches of other Carpophilus species; details: 20 repeats per treatment, with co-attractant
Protocol: as §1

| SMILES | C. truncatus beetle catches (Carpophilus truncatus [1]) | C. truncatus beetles caught (Carpophilus truncatus [2]) | Other Carpophilus species beetles caught [3] |
| --- | --- | --- | --- |
| C/C=C(C)/C=C(C)/C=C(C)/C=C/CC [Phero 2, (E,E,E,E)-3,5,7-trimethyl-2,4,6,8-undecatetraene] | caught significantly more beetles than the commercial tri-species septa |  |  |
| CCCCCCCCCCCCCC=O [Phero 3, tetradecanal] |  | caught significantly less C. truncatus and other Carpophilus species beetles than Phero 2 and Phero 2+Phero 3 | caught significantly less C. truncatus and other Carpophilus species beetles than Phero 2 and Phero 2+Phero 3 |
